Data taken from publication PMC10694853, “Bio-guided isolation of alpha-glucosidase inhibitory compounds from Vietnamese Garcinia schomburgkiana fruits: in vitro and in silico studies” (RSC Advances, 2023).
Entries after “also recorded” stand apart in the source; their conditions may differ. Read-outs that look alike come from different tables or passages of the source.

How the values were obtained:
yeast alpha-glucosidase = experiment: Alpha-glucosidase inhibition assay; type: biochemical; details: isolated compounds
Protocol: Extracts and fractions EA1–EA16 were evaluated for the alpha-glucosidase inhibition to choose the fraction for further analysis. The isolation of 1–11 was described in Scheme 1 using silica gel CC with various solvent systems.
Evaluation of the inhibitory activity of 1–11 against yeast alpha-glucosidase followed a previous procedure.[34]

[1] = target: protein tyrosine phosphatase 1B; parameters: method as in PMID 34111550; details: isolated from H. forrestii; read-out: PTP1B inhibition IC50; cited from earlier work
alpha-glucosidase [2] = details: cited from earlier work; for IC50: read-out: Alpha-glucosidase inhibition IC50
alpha-glucosidase [3] = experiment: Kinetic study of alpha-glucosidase inhibition (Lineweaver–Burk plots); type: biochemical
Protocol: To better understand the kinetic parameters of alpha-glucosidase inhibition by 2, the enzyme activity was assessed by varying substrate concentrations in the absence or presence of 2. The inhibition type was identified through Lineweaver–Burk plots (Fig. 3A), where the reciprocal of the reaction rate (1/V) was graphed against the reciprocal of substrate concentrations (1/[S]). This approach allowed monitoring the effect of the inhibitor on both Km and Vmax. […] The inhibition constant for the inhibitor binding with free enzyme (Ki) was determined from a plot of the slope (Km/Vm) versus the inhibitor concentration (Fig. 3B).
The kinetics of 2 against alpha-glucosidase was conducted by varying the concentration of p-NPG substrate in the absence or presence of tested compound at different concentrations (0, 30.0, and 60.0 μM). The Lineweaver–Burk plots were used to determine the inhibition type. In addition, the inhibition constant Ki is an indication of the potency of an inhibitor and was determined from secondary plots of 1/V vs. [I].[35] The Lineweaver–Burk double-reciprocal plot (1/V vs. 1/[S]) was employed to discern the Vmax, […], and mode of inhibition (Fig. 10). [drawing 1]

| Compound | IC50 (yeast alpha-glucosidase) [µM] | other results |
| --- | --- | --- |
| CC(C)=CCC/C(C)=C/C[C@]12C[C@@H]3C[C@H]4C(C)(C)CC[C@@]4(C1=O)C(=O)[C@](C(=O)c1ccccc1)(C2=O)C3(C)C [Compound 6, sampsonione H] | 56.9 ± 1.9 | IC50 [1]: 6.63 ± 2.4 µM |
| CC(C)=CCCC1(C)C(CC=C(C)C)CC2(CC=C(C)C)C(=O)C(C(=O)c3ccccc3)=C(O)C1C2=O (stereo not drawn) [Compound 1, epi-guttiferone Q] | 60.7 ± 3.6 |  |
| CC(C)=CCCC1(C)C(CC=C(C)C)CC23CCC(C)(C)OC2=C(C(=O)c2ccc(O)c(O)c2)C(=O)C1(CC=C(C)C)C3=O (stereo not shown) [schomburgkianone I] |  | IC50 (alpha-glucosidase [2]; isolated from Thai G. schomburgkiana sources): 21.2 µM |
| C[C@H]1O[C@H](O[C@H]2[C@H](O)[C@@H](O)[C@@H](O[C@H]3[C@H](O)[C@@H](O)C(O)O[C@@H]3CO)O[C@@H]2CO)[C@H](O)[C@@H](O)[C@@H]1N[C@H]1C=C(CO)[C@@H](O)[C@H](O)[C@H]1O (stereo partly shown) [acarbose] |  | Inhibition type (alpha-glucosidase [2]; positive control, previous work): competitive inhibitor |
| guttiferone K [Compound 3] | 16.2 ± 0.7 |  |
| CC(C)=CCCC(C)=CCC12CC3CC4C(C)(C)CCC4(C1=O)C(=O)C(C(=O)c1ccccc1)(C2=O)C3(C)C (stereo not shown) [Compound 4, hypersampsone I] | 131 ± 4.6 |  |
| COc1c(O)cc2oc3cc(O)c4c(c3c(=O)c2c1CC=C(C)C)OC(C)(C)C(O)C4 (stereo not shown) [Compound 11, 11-hydroxy-1-isomangostin] | > 200 |  |
| CC(C)=CCCC1(C)C(CC=C(C)C)CC2(CC=C(C)C)C(=O)C(C(=O)c3ccccc3)=C(O)C1C2=O (stereo not shown) [Guttiferone Q] |  | IC50 (alpha-glucosidase [2]): 118 µM |

The next lines start with results.

| IC50 (yeast alpha-glucosidase) [µM] | Compound | other results |
| --- | --- | --- |
| > 200 | COc1c(O)cc2oc3cc(O)c(CC=C(C)C)c(O)c3c(=O)c2c1CC=C(C)C [Compound 8, α-mangostin] |  |
| > 200 | COc1cc2oc3cc(O)c(OC)c(CC=C(C)C)c3c(=O)c2c(O)c1CC=C(C)C [Compound 7, β-mangostin] |  |
| 29.4 ± 1.2 | CC(C)=CCC/C(C)=C/C[C@H]1C[C@]2(CC=C(C)C)C(=O)[C@@](CC=C(C)C)(C(=O)C(C(=O)c3ccc(O)c(O)c3)=C2O)[C@]1(C)CCC=C(C)C [Compound 2, guttiferone I] | Inhibition type (alpha-glucosidase [3]; Lineweaver–Burk plots, Vmax constant, Km increased): competitive inhibitor; also recorded: competitive type; Ki (alpha-glucosidase [3]; from plot of slope (Km/Vm) versus inhibitor concentration, p-NPG substrate, read-out: Inhibition constant Ki): 69.2 µM; IC50 (alpha-glucosidase [2]; compound from G. cowa): 13.1 µM |
| 116 ± 2.7 | C=C(C)C1CC23C(=O)C4(CC=C(C)CCC=C(C)C)CC(CC2C1(C)C)C(C)(C)C(C(=O)c1ccccc1)(C4=O)C3=O (stereo not shown) [Compound 5, sampsonione D] |  |
